The record followed here is patent US20210206760A1, “PHENYL-SUBSTITUTED DIHYDRONAPHTHYRIDINE COMPOUND AND USE THEREOF” (SUNSHINE LAKE PHARMA CO., LTD., priority 2018, published 2021).

The target of the experiment is T1, mineralocorticoid receptor (MR) (Homo sapiens, UniProt P08235).
T1 construct: expressed in transfected cells; host or cells: HEK293 (human embryonic kidney cells)
T1 sequence (P08235 726-964 limits assumed): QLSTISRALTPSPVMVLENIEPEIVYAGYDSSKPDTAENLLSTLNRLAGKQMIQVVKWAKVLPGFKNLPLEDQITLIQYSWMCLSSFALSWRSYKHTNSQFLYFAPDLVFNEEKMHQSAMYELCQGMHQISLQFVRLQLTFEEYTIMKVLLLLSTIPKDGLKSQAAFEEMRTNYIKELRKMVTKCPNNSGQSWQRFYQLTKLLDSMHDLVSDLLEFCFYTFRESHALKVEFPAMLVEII
As to the kind of experiment: Activity test in vitro: Gal4 DBD-MR LBD dual luciferase reporter assay in HEK293 cells. It counts as cell-based. To be noted: HEK293 cells transfected with Gal4 DBD-MR LBD and firefly luciferase reporter; agonist aldosterone at EC80; 18 hours incubation; Renilla-corrected. From the text:
Example a Activity Test In Vitro
Utilizing the characteristics of luciferase binding to the substrate to produce a chemiluminescence reaction, the fused plasmid of the Gal4 DNA binding domain (DBD) containing the ligand binding domain (LBD) of mineralocorticoid receptor (MR) and the firefly luciferase reporter gene plasmid controlled by Gal4 UAS (upstream activation sequences) were transfected into human embryonic kidney cells (HEK293). The changes in mineralocorticoid receptor activity between before and after stimulation or the influence of different stimuli on mineralocorticoid receptor activity was judged by the level of firefly luciferase activity. At the same time, in order to reduce the impact of internal change factors on the accuracy of the experiment, the plasmid with Renilla luciferase gene was used as a control plasmid to transfect cells to provide an internal control for transcription activity, so that the test results were not interfered by changes in experimental conditions.
1) HEK293 cells were collected after trypsinization and the cell density was adjusted to 500,000 cells/mL;
2) FuGENE HD transfection reagent was added into the cell suspension;
3) The above cell suspension was seeded into a 96-well cell culture plate at a density of 100 μL/well, and incubated for 24 hours at 37° C. in 5% CO2;
4) A series of concentrations of the test compound solution and the EC80 concentration of agonist aldosterone were added into each well and incubated for 18 hours;
5) Firefly and Renilla luciferase signals were detected through Promega dual luciferase reporter assay system.
1) After obtaining the firefly luciferase signal (F) and the Renilla luciferase signal (R), using the Renilla luciferase signal for correction, i.e., the F/R value was used to calculate the subsequent inhibition rate;
2)% inhibition rate=(Max−X)/(Max−Min)×100%, where Max is the F/R value of the positive control well, Min is the F/R value of the negative control well, and X is the F/R value of test compound well of different concentrations;
3) IC50 calculation was performed by GraphPrism 5.0 mapping software.
(In a reporter assay the amount or activity of a reporter protein is the signal.)
`COc1cc(C#N)ccc1C1C(C(N)=O)=C(C)Nc2c(C)cnc(OCC3CC3)c21` (centres unmarked) [Example 1, 4-(4-Cyano-2-methoxyphenyl)-5-(cyclopropylmethoxy)-2,8-dimethyl-1,4-dihydro-1,6-naphthyridine-3-carboxamide]: the IC50 (in general, the midpoint of a concentration-inhibition curve) is 19.4 nM.

Regarding `COc1cc(C#N)ccc1C1C(C(N)=O)=C(C)Nc2c(C)cnc(OCC3CCCC3)c21` (centres unmarked) [Example 3, 4-(4-Cyano-2-methoxyphenyl)-5-(cyclopentylmethoxy)-2,8-dimethyl-1,4-dihydro-1,6-naphthyridine-3-carboxamide], the IC50 came out at 28.7 nM. The IC50 values of the last two compounds are within 1.5-fold of each other.

Compound `COc1cc(C#N)ccc1C1C(C(N)=O)=C(C)Nc2c(C)cnc(OCC3CCC3)c21` (centres unmarked) [Example 5, 4-(4-cyano-2-methoxyphenyl)-5-(cyclobutylmethoxy)-2,8-dimethyl-1,4-dihydro-1,6-naphthyridine-3-carboxamide] returned a half-inhibitory concentration (IC50) of 17.8 nM.

The compound `COc1cc(C#N)ccc1C1C(C(N)=O)=C(C)Nc2c(C)cnc(OC3CCC3)c21` (centres unmarked) [Example 7, 4-(4-Cyano-2-methoxyphenyl)-5-(cyclobutyloxy)-2,8-dimethyl-1,4-dihydro-1,6-naphthyridine-3-carboxamide] registered an IC50 of 3.44 nM.

Consider `COc1cc(C#N)ccc1C1C(C(N)=O)=C(C)Nc2c(C)cnc(OC3CCCC3)c21` (centres unmarked) [Example 8, 4-(4-Cyano-2-methoxyphenyl)-5-(cyclopentyloxy)-2,8-dimethyl-1,4-dihydro-1,6-naphthyridine-3-carboxamide], for which the IC50 came to 7.74 nM.
